Data as given in ChEMBL document CHEMBL5674860, “Optimized Dual-Glo Assay to identify co-culture-induced drug vulnerabilities in 3D CRC models” (2024).

How the values were obtained:
Assay type in all cases: functional, Homo sapiens
Set-up in all cases: dose or concentration left out as unconfirmed
Colon cancer organoid [1] = assay: Optimized Dual-Glo assay to identify co-culture induced drug vulnerabilities using donated chemical probes and chemogenomics kinase set in O06 CRC organoid and F06 CAF mono and co-culture. […] Cell viability is reported both mono and co-culture models.
Colon cancer organoid [2] = assay: Optimized Dual-Glo assay to identify co-culture induced drug vulnerabilities using donated chemical probes and chemogenomics kinase set in O14 CRC organoid and F14 CAF mono and co-culture. […] Cell viability is reported both mono and co-culture models.
Colon cancer organoid [3] = assay: Optimized Dual-Glo assay to identify co-culture induced drug vulnerabilities using donated chemical probes and chemogenomics kinase set in O20 CRC organoid and F20 CAF mono and co-culture. […] Cell viability is reported both mono and co-culture models.
[4] = Culture type Co-Culture, Transduced with Lucferase2-P2A-EGFP lentivirus
[5] = Culture type Co-Culture, Transduced with Renilla-dsRed lentivirus
[6] = Culture type Mono-Culture, Transduced with Lucferase2-P2A-EGFP lentivirus
[7] = Culture type Mono-Culture, Transduced with Renilla-dsRed lentivirus

Row | Structure (SMILES) | Cell Viability (Colon cancer organoid [1]; [4]) [%] | Cell Viability (Colon cancer organoid [1]; [5]) [%] | Cell Viability (Colon cancer organoid [1]; [6]) [%] | Cell Viability (Colon cancer organoid [1]; [7]) [%] | Cell Viability (Colon cancer organoid [2]; [4]) [%] | Cell Viability (Colon cancer organoid [2]; [5]) [%] | Cell Viability (Colon cancer organoid [2]; [6]) [%] | Cell Viability (Colon cancer organoid [2]; [7]) [%] | Cell Viability (Colon cancer organoid [3]; [4]) [%] | Cell Viability (Colon cancer organoid [3]; [5]) [%] | Cell Viability (Colon cancer organoid [3]; [6]) [%] | Cell Viability (Colon cancer organoid [3]; [7]) [%]
1 | Cc1cn(-c2cc(NC(=O)c3ccc4c(c3)CN(c3cncnc3)C[C@@H]4C)cc(C(F)(F)F)c2)cn1 | 85.5561 | 98.7805 | 59.4105 | 105.628 | 105.46 | 96.2213 | 134.218 | 97.9875 | 88.3808 | 107.854 | 86.0975 | 111.829
2 | CCNC(=O)c1cc2c(N3CCOCC3C)ccnc2[nH]1 (stereo not drawn) | 131.632 | 146.353 | 109.161 | 91.669 | 86.1024 | 100.89 | 87.7409 | 81.9796 | 144.452 | 100.256 | 103.659 | 101.624
3 | CC(=O)NCC(=O)N1[C@@H]2CC[C@H]1c1ccc(Nc3ncc(C(F)(F)F)c(NC4CCC4)n3)cc12 [PF-03814735] | 12.5382 | 132.747 | 7.137 | 42.3421 | 21.4424 | 92.7993 | 23.2786 | 69.2613 | 4.585 | 155.761 | 7.993 | 63.4074
4 | CCC(=O)Nc1cccc(Oc2nc(Nc3ccc(N4CCN(C)CC4)cc3OC)ncc2Cl)c1 | 92.8013 | 94.5997 | 65.5336 | 70.4946 | 114.921 | 101.654 | 90.6079 | 93.4216 | 125.445 | 105.023 | 80.3355 | 88.9581
5 | CCOc1ccc(S(=O)(=O)Nc2ccc(Cl)cc2C#Cc2cnc(C(=O)[O-])cc2OC)c2ncccc12.[K+] | 117.764 | 113.31 | 103.254 | 83.0425 | 128.517 | 94.7736 | 96.9622 | 95.2003 | 109.87 | 117.362 | 101.299 | 92.0089
6 | CC(=O)N1CCC(c2ccc(C(=O)NC(=N)N)cc2C(F)(F)F)CC1 [BI 9627] | 150.087 | 189.046 | 112.79 | 98.1409 | 82.2007 | 132.273 | 72.3529 | 98.3882 | 96.0735 | 101.417 | 111.956 | 89.7357
7 | CC1=C(C(=O)Nc2cc3cn[nH]c3cc2F)C(c2ccc(C(F)(F)F)cc2)CC(=O)N1 (stereo not drawn) | 110.512 | 74.1449 | 112.137 | 107.646 | 79.4624 | 111.728 | 79.1311 | 103.404 | 133.522 | 94.2958 | 98.8555 | 95.2955
8 | COCCc1ccc(-c2c(C)nc3c(N4CCOCC4)ccnn23)cn1 [JNJ-42396302] | 95.3565 | 88.7666 | 124.422 | 103.43 | 101.077 | 99.3561 | 103.596 | 90.5469 | 126.017 | 102.271 | 117.378 | 103.223
9 | Cc1cc(CN)cc(C)c1-c1ncn(C)c1-c1ccnc2cc(F)ccc12.Cl | 105.057 | 123.721 | 137.219 | 129.63 | 87.6168 | 103.014 | 105.617 | 97.8671 | 143.957 | 87.6481 | 139.188 | 92.4746
10 | O=C(Nc1ccc(-c2ccnc(Nc3ccc(N4CCOCC4)cc3)n2)cc1)[C@@H]1CCCN1 | 100.254 | 96.014 | 101.806 | 108.082 | 127.595 | 79.807 | 135.011 | 98.0054 | 138.223 | 76.0213 | 82.2702 | 101.459
11 | CN(C)CCCOc1ccc(-c2cc(NCCCn3cccn3)nc(S(C)(=O)=O)n2)cc1 | 126.468 | 129.443 | 108.628 | 116.281 | 98.5657 | 111.103 | 109.089 | 94.6282 | 144.301 | 126.832 | 110.606 | 92.2355
12 | O=C(c1ccc(F)c(F)c1Nc1ccc(I)cc1F)N1CC(O)([C@@H]2CCCCN2)C1 [COBIMETINIB] | 5.143 | 42.4292 | 6.053 | 35.0976 | 2.787 | 24.389 | 1.583 | 12.612 | 4.023 | 77.761 | 4.662 | 37.2771
13 | Cc1nccc(COC(=O)N2C[C@@H]3[C@@H](CNC(=O)c4ccc5[nH]nnc5c4)[C@@H]3C2)n1 [BI 3017] | 136.883 | 128.292 | 95.2629 | 74.0867 | 93.935 | 119.587 | 137.729 | 94.2589 | 107.028 | 99.2728 | 143.356 | 100.924
14 | CCOC(=O)CCNc1cc(N2CCc3ccccc3CC2)nc(-c2cccnc2)n1 | 130.773 | 124.082 | 90.274 | 111.34 | 62.9469 | 109.109 | 99.8423 | 94.8955 | 102.18 | 131.422 | 61.9891 | 99.1525
15 | CC(C)Oc1ccc(-c2c[nH]cc2CN(C)CCO)cc1 | 112.392 | 114.959 | 84.6605 | 116.102 | 119.367 | 107.888 | 90.5544 | 99.1586 | 114.035 | 121.653 | 114.538 | 100.305
16 | COc1ccc(COc2ccc(Cc3cnc(N)nc3N)cc2OC)cc1 [GW632580X] | 84.8428 | 83.7807 | 109.175 | 109.596 | 102.637 | 115.835 | 144.397 | 94.931 | 200.024 | 84.9331 | 115.095 | 88.8877
17 | O=C(NC[C@@H]1[C@H]2CN(C(=O)OCc3cc(C(F)(F)F)cc(C(F)(F)F)c3)C[C@@H]12)c1ccc2[nH]nnc2c1 [BI 2545] | 124.688 | 144.467 | 99.0945 | 89.0013 | 75.1961 | 105.32 | 137.829 | 80.7794 | 135.058 | 115.933 | 103.58 | 122.062
18 | O=C(CNCc1cc2ccccc2[nH]1)N[C@H]1CC[C@@H](c2nc3ccccc3[nH]2)CC1 | 85.8975 | 91.436 | 103.293 | 98.1178 | 97.4401 | 97.7804 | 95.7204 | 104.778 | 100.625 | 124.153 | 84.865 | 96.1375
19 | O=C(NC[C@H](O)CN1CCc2ccccc2C1)c1ccnc(NC2CCC2)c1 | 33.1368 | 110.399 | 67.3977 | 84.1228 | 29.3409 | 134.373 | 40.919 | 88.6314 | 42.8317 | 143.569 | 53.6752 | 63.4646
